According to US20120058989A1, “ANTIBACTERIAL FLUOROQUINOLONE ANALOGS” (Achaogen, Inc., priority 2008, published 2012):
Values after ≈ are worked out from the molar mass of the structure shown. Read-outs that look alike come from different tables or passages of the source. Each block holds one compound with its values, some of them ahead of it.

What was measured:
Assay in all cases: MIC, CLSI broth microdilution
Type in all cases: cell-based
[1] = tested on: P. aeruginosa APAE054 (Fluoroquinolone-resistant); conditions: for MIC: Pseudomonas aeruginosa
How it was run: (§1)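 Test compounds were diluted two-fold at 2× strength in Mueller Hinton Broth, then combined 1:1 with saline-suspended bacteria from an overnight agar colony to reach 5×10^5 CFU/mL. Incubation followed at 35° C. for 20 hours in ambient air, per CLSI reference methods.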

[2] = tested on: S. aureus ASAU001 (Fluoroquinolone-susceptible, ATCC29213); conditions: for MIC: Staphylococcus aureus
How it was run: as §1

[3] = tested on: A. baumannii AABA1065 (Fluoroquinolone-susceptible); conditions: for MIC: Acinetobacter baumannii
How it was run: as §1

[4] = tested on: A. baumannii AABA1009 (Fluoroquinolone-resistant)
How it was run: as §1

[5] = tested on: A. baumannii AABA1020 (Fluoroquinolone-resistant); conditions: Table 3
How it was run: as §1

[6] = tested on: P. aeruginosa APAE001 (Fluoroquinolone-susceptible, ATCC27853); conditions: for MIC: Pseudomonas aeruginosa
How it was run: as §1

[7] = tested on: S. aureus ASAU1033 (Fluoroquinolone-resistant); conditions: Table 3
How it was run: as §1

[8] = tested on: S. pneumoniae ASPN1018 (Fluoroquinolone-resistant); conditions: Table 3
How it was run: as §1

[9] = tested on: S. pneumoniae ASPN001 (Fluoroquinolone-susceptible, ATCC49619); conditions: for MIC: Streptococcus pneumoniae
How it was run: as §1

[10] = tested on: E. coli AECO086 (Fluoroquinolone-resistant); conditions: Table 3
How it was run: as §1

[11] = tested on: S. pneumoniae ASPN002 (Fluoroquinolone-susceptible, ATCC10813); conditions: Table 3
How it was run: as §1

[12] = tested on: S. aureus ASAU1031 (Fluoroquinolone-resistant); conditions: for MIC: Staphylococcus aureus
How it was run: as §1

[13] = tested on: S. pneumoniae ASPN1027 (Fluoroquinolone-resistant); conditions: for MIC: Streptococcus pneumoniae
How it was run: as §1

[14] = tested on: E. coli AECO066 (Fluoroquinolone-resistant); conditions: for MIC: Escherichia coli
How it was run: as §1

[15] = tested on: E. coli AECO001 (Fluoroquinolone susceptible, ATCC25922); conditions: for MIC: Escherichia coli
How it was run: as §1

[16] = tested on: S. aureus ASAU002 (Fluoroquinolone-susceptible, ATCC33591 (MRSA)); conditions: Table 3
How it was run: as §1

[17] = tested on: P. aeruginosa APAE002 (Fluoroquinolone susceptible); conditions: Table 3
How it was run: as §1

[18] = tested on: E. coli AECO002 (Fluoroquinolone susceptible); conditions: Table 3
How it was run: as §1

MIC APAE 054 ([1]; Table 2): C (MIC's of greater than 8.0 μg/mL = C) | MIC APAE 054 ([1]; Table 3): D (MIC's of greater than 8.0 μg/mL = D) | MIC ASAU 001 ([2]; Table 2): A (MIC's of 1.0 μg/mL or less = A) | MIC ASAU 001 ([2]; Table 3): A (MIC's of less than 1.0 = A) | MIC AABA 1065 ([3]; Table 2): A (MIC's of 1.0 μg/mL or less = A) | MIC AABA 1065 ([3]; Table 3): A (MIC's of less than 1.0 = A) | MIC AABA 1009 ([4]; Table 2): C (MIC's of greater than 8.0 μg/mL = C) | MIC AABA1020 [5]: D (MIC's of greater than 8.0 μg/mL = D) | MIC APAE 001 ([6]; Table 2): A (MIC's of 1.0 μg/mL or less = A) | MIC APAE 001 ([6]; Table 3): A (MIC's of less than 1.0 = A) | MIC ASAU1033 [7]: C (MIC's of 2.0 μg/mL to 8.0 μg/mL = C) | MIC ASPN1018 [8]: B (MIC's of 1.0 μg/mL to 2.0 μg/mL = B) | MIC ASPN 001 ([9]; Table 2): A (MIC's of 1.0 μg/mL or less = A) | MIC ASPN 001 ([9]; Table 3): A (MIC's of less than 1.0 = A) | MIC AECO086 [10]: B (MIC's of 1.0 μg/mL to 2.0 μg/mL = B) | MIC ASPN002 [11]: A (MIC's of less than 1.0 = A) | MIC ASAU 1031 ([12]; Table 3): A (MIC's of less than 1.0 = A) | MIC ASPN 1027 ([13]; Table 3): A (MIC's of less than 1.0 = A) | MIC AECO 066 ([14]; Table 3): C (MIC's of 2.0 μg/mL to 8.0 μg/mL = C) | MIC AECO 001 ([15]; Table 2, 35° C., 20 hours): A (MIC's of 1.0 μg/mL or less = A) | MIC AECO 001 ([15]; Table 3): A (MIC's of less than 1.0 = A) | MIC ASAU002 [16]: A (MIC's of less than 1.0 = A) | MIC APAE002 [17]: A (MIC's of less than 1.0 = A) | MIC AECO002 [18]: A (MIC's of less than 1.0 = A)
Compound: N[C@H]1CCN2c3c(F)cc4c(=O)c(C(=O)O)cn(C5CC5)c4c3C=CC[C@H]12.O=C(O)C(F)(F)F [17/8, (7aR,8S)-8-Amino-4-cyclopropyl-12-fluoro-1-oxo-4,7,7a,8,9,10-hexahydro-1H-pyrrolo[1′,2′:1,7]azepino[2,3-h]quinoline-2-carboxylic acid trifluoroacetate]
MIC ASAU 1031 ([12]; Table 2): B (MIC's of greater than 1.0 μg/mL to 8.0 μg/mL = B) | MIC ASPN 1027 ([13]; Table 2): B (MIC's of greater than 1.0 μg/mL to 8.0 μg/mL = B) | MIC AECO 066 ([14]; Table 2): B (MIC's of greater than 1.0 μg/mL to 8.0 μg/mL = B)

MIC ([1]; Table 2, read-out: MIC APAE 054): > 8 µg/mL | MIC ([1]; Table 3): > 8 µg/mL | MIC ([2]; Table 2, read-out: MIC ASAU 001): ≤ 1 µg/mL | MIC ([2]; Table 3): < 1 µg/mL | MIC ([3]; Table 2, read-out: MIC AABA 1065): ≤ 1 µg/mL | MIC ([3]; Table 3): < 1 µg/mL | MIC ([4]; Acinetobacter baumannii, Table 2, read-out: MIC AABA 1009): > 8 µg/mL | MIC ([5]; Acinetobacter baumannii): > 8 µg/mL | MIC ([6]; Table 2, read-out: MIC APAE 001): 1 to 8 µg/mL (≈ 2.49 to 19.9 µM) | MIC ([6]; Table 3): 1 to 2 µg/mL (≈ 2.49 to 4.98 µM) | MIC ([7]; Staphylococcus aureus): > 8 µg/mL | MIC ([8]; Streptococcus pneumoniae): 2 to 8 µg/mL (≈ 4.98 to 19.9 µM) | MIC ([9]; Table 2, read-out: MIC ASPN 001): ≤ 1 µg/mL | MIC ([9]; Table 3): < 1 µg/mL | MIC ([10]; Escherichia coli): > 8 µg/mL | MIC ([11]; Streptococcus pneumoniae): < 1 µg/mL | MIC ([12]; Table 2, read-out: MIC ASAU 1031): 1 to 8 µg/mL (≈ 2.49 to 19.9 µM) | MIC ([12]; Table 3): 2 to 8 µg/mL (≈ 4.98 to 19.9 µM) | MIC ([13]; Table 2, read-out: MIC ASPN 1027): 1 to 8 µg/mL (≈ 2.49 to 19.9 µM) | MIC ([13]; Table 3): 2 to 8 µg/mL (≈ 4.98 to 19.9 µM) | MIC ([14]; Table 2, read-out: MIC AECO 066): > 8 µg/mL | MIC ([14]; Table 3): > 8 µg/mL | MIC ([15]; Table 2, 35° C., 20 hours, read-out: MIC AECO 001): ≤ 1 µg/mL | MIC ([15]; Table 3): < 1 µg/mL | MIC ([16]; Staphylococcus aureus): < 1 µg/mL | MIC ([17]; Pseudomonas aeruginosa): 1 to 2 µg/mL (≈ 2.49 to 4.98 µM) | MIC ([18]; Escherichia coli): < 1 µg/mL
Compound: COc1c(N2C[C@@H]3CCCN[C@@H]3C2)c(F)cc2c(=O)c(C(=O)O)cn(C3CC3)c12 [Moxifloxacin, reference compound]
